# Measured values published in PubChem BioAssay AID2060912 (Molecular Pharmacology Branch, DTP, NCI, 2025).
# Test system: HUVEC/MSC spheroids viability
# Experiment: Human HUVEC/MSC cell line growth inhibition [KRAS2];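 as to viability, T/C: percent of DMSO vehicle control luminescence so 100% = untreated viability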
# Conditions: for viability, T/C: stronger effect = lower value
# How it was run: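 HUVEC + hMSC stromal spheroids only, no malignant cells; 37 °C, 5% CO2. Drugs singly and in pairs, half-log series down from clinical Cmax (max 10 microM if Cmax undetermined).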
# [1] = curve of first compound, second compound 0.0316 µM
# [2] = curve of first compound, second compound 0.1 µM
# [3] = curve of first compound, second compound 0.316 µM
# [4] = curve of first compound, second compound 1 µM
# [5] = curve of first compound, second compound 3.16 µM
# [6] = curve of first compound, second compound 10 µM
# [7] = second compound 0.0316 µM, first compound 0.0316 µM
# [8] = second compound 0.0316 µM, first compound 0.1 µM
# [9] = second compound 0.0316 µM, first compound 0.316 µM
# [10] = second compound 0.0316 µM, first compound 1 µM
# [11] = second compound 0.0316 µM, first compound 3.16 µM
# [12] = second compound 0.0316 µM, first compound 10 µM
# [13] = second compound 0.1 µM, first compound 0.0316 µM
# [14] = second compound 0.1 µM, first compound 0.1 µM
# [15] = second compound 0.1 µM, first compound 0.316 µM
# [16] = second compound 0.1 µM, first compound 1 µM
# [17] = second compound 0.1 µM, first compound 3.16 µM
# [18] = second compound 0.1 µM, first compound 10 µM
# [19] = second compound 0.316 µM, first compound 0.0316 µM
# [20] = second compound 0.316 µM, first compound 0.1 µM
# [21] = second compound 0.316 µM, first compound 0.316 µM
# [22] = second compound 0.316 µM, first compound 1 µM
# [23] = second compound 0.316 µM, first compound 3.16 µM
# [24] = second compound 0.316 µM, first compound 10 µM
# [25] = second compound 1 µM, first compound 0.0316 µM
# [26] = second compound 1 µM, first compound 0.1 µM
# [27] = second compound 1 µM, first compound 0.316 µM
# [28] = second compound 1 µM, first compound 1 µM
# [29] = second compound 1 µM, first compound 3.16 µM
# [30] = second compound 1 µM, first compound 10 µM
# [31] = second compound 3.16 µM, first compound 0.0316 µM
# [32] = second compound 3.16 µM, first compound 0.1 µM
# [33] = second compound 3.16 µM, first compound 0.316 µM
# [34] = second compound 3.16 µM, first compound 1 µM
# [35] = second compound 3.16 µM, first compound 3.16 µM
# [36] = second compound 3.16 µM, first compound 10 µM
# [37] = second compound 10 µM, first compound 0.0316 µM
# [38] = second compound 10 µM, first compound 0.1 µM
# [39] = second compound 10 µM, first compound 0.316 µM
# [40] = second compound 10 µM, first compound 1 µM
# [41] = second compound 10 µM, first compound 3.16 µM
# [42] = second compound 10 µM, first compound 10 µM
smiles,measurement,setting,value
CCNC(=O)CC1N=C(c2ccc(Cl)cc2)c2cc(OC)ccc2-n2c(C)nnc21 (stereo not drawn) + CC1OCC2(CCN(c3cnc(Sc4ccnc(N)c4Cl)c(N)n3)CC2)C1N,IC50,[1],> 10 µM
same,IC50,[2],> 10 µM
same,IC50,[3],> 10 µM
same,IC50,[4],> 10 µM
same,IC50,[5],> 10 µM
same,IC50,[6],3.02 µM
same,"viability, T/C",[7],79.7%
same,"viability, T/C",[8],102%
same,"viability, T/C",[9],99.2%
same,"viability, T/C",[10],87.5%
same,"viability, T/C",[11],110%
same,"viability, T/C",[12],89.4%
same,"viability, T/C",[13],107%
same,"viability, T/C",[14],86.2%
same,"viability, T/C",[15],102%
same,"viability, T/C",[16],91.8%
same,"viability, T/C",[17],99%
same,"viability, T/C",[18],95.3%
same,"viability, T/C",[19],90.6%
same,"viability, T/C",[20],88.6%
same,"viability, T/C",[21],87.1%
same,"viability, T/C",[22],88.2%
same,"viability, T/C",[23],88%
same,"viability, T/C",[24],84.1%
same,"viability, T/C",[25],79.3%
same,"viability, T/C",[26],97.8%
same,"viability, T/C",[27],76.6%
same,"viability, T/C",[28],68.4%
same,"viability, T/C",[29],77.2%
same,"viability, T/C",[30],58.8%
same,"viability, T/C",[31],83.5%
same,"viability, T/C",[32],103%
same,"viability, T/C",[33],81.4%
same,"viability, T/C",[34],73.8%
same,"viability, T/C",[35],66%
same,"viability, T/C",[36],51.3%
same,"viability, T/C",[37],66%
same,"viability, T/C",[38],64.5%
same,"viability, T/C",[39],77.8%
same,"viability, T/C",[40],64%
same,"viability, T/C",[41],49.6%
same,"viability, T/C",[42],30%
COc1cc(OC)cc(N(CCNC(C)C)c2ccc3ncc(-c4cnn(C)c4)nc3c2)c1,"viability, T/C",compound 0.0316 µM,60.9% [middle of 5 runs]
same,"viability, T/C",compound 0.1 µM,45.4% [middle of 5 runs]
same,"viability, T/C",compound 0.316 µM,38.2% [middle of 5 runs]
same,"viability, T/C",compound 1 µM,38.3% [middle of 5 runs]
same,"viability, T/C",compound 3.16 µM,41.8% [middle of 5 runs]
same,"viability, T/C",compound 10 µM,34.8% [middle of 5 runs]
same,IC50,curve of compound,66.1 nM [middle of 5 runs]
CC1OCC2(CCN(c3cnc(Sc4ccnc(N)c4Cl)c(N)n3)CC2)C1N (stereo not drawn) + CNCc1ccccc1-c1csc(C(C)Nc2nc(C)nc3cc(OC)c(OC)cc23)c1,IC50,[1],> 10 µM
same,IC50,[2],6.91 µM
same,IC50,[3],6.2 µM
same,IC50,[4],6.91 µM
same,IC50,[5],4.95 µM
same,IC50,[6],< 0.0316 µM
same,"viability, T/C",[7],90.2%
same,"viability, T/C",[8],104%
same,"viability, T/C",[9],86.8%
same,"viability, T/C",[10],80.1%
same,"viability, T/C",[11],83.1%
same,"viability, T/C",[12],51.9%
same,"viability, T/C",[13],94.5%
same,"viability, T/C",[14],108%
same,"viability, T/C",[15],90.4%
same,"viability, T/C",[16],74.2%
same,"viability, T/C",[17],68%
same,"viability, T/C",[18],42.5%
same,"viability, T/C",[19],90.2%
same,"viability, T/C",[20],81.9%
same,"viability, T/C",[21],78.2%
same,"viability, T/C",[22],69.9%
same,"viability, T/C",[23],70.3%
same,"viability, T/C",[24],38.5%
same,"viability, T/C",[25],74.6%
same,"viability, T/C",[26],104%
same,"viability, T/C",[27],79.1%
same,"viability, T/C",[28],67.4%
same,"viability, T/C",[29],68.8%
same,"viability, T/C",[30],42.5%
same,"viability, T/C",[31],90.8%
same,"viability, T/C",[32],98.7%
same,"viability, T/C",[33],82%
same,"viability, T/C",[34],89.2%
same,"viability, T/C",[35],78.9%
same,"viability, T/C",[36],4.77%
same,"viability, T/C",[37],0.35%
same,"viability, T/C",[38],0.39%
same,"viability, T/C",[39],0.53%
same,"viability, T/C",[40],0.42%
same,"viability, T/C",[41],0.4%
same,"viability, T/C",[42],0.25%
CC1OCC2(CCN(c3cnc(Sc4ccnc(N)c4Cl)c(N)n3)CC2)C1N (stereo not drawn) + COc1cc2nc(C)nc(NC(C)c3cc(N)cc(C(F)(F)F)c3)c2cc1OC1CCOC1,IC50,[1],6.36 µM
same,IC50,[2],6.22 µM
same,IC50,[3],> 10 µM
same,IC50,[4],6.15 µM
same,IC50,[5],5.19 µM
same,IC50,[6],3.73 µM
same,"viability, T/C",[7],101%
same,"viability, T/C",[8],111%
same,"viability, T/C",[9],91.8%
same,"viability, T/C",[10],64.4%
same,"viability, T/C",[11],70.6%
same,"viability, T/C",[12],40.4%
same,"viability, T/C",[13],115%
same,"viability, T/C",[14],90.7%
same,"viability, T/C",[15],76.8%
same,"viability, T/C",[16],72.4%
same,"viability, T/C",[17],63%
same,"viability, T/C",[18],40.8%
same,"viability, T/C",[19],80.7%
same,"viability, T/C",[20],95.2%
same,"viability, T/C",[21],88%
same,"viability, T/C",[22],63.1%
same,"viability, T/C",[23],60.2%
same,"viability, T/C",[24],54.2%
same,"viability, T/C",[25],83.6%
same,"viability, T/C",[26],100%
same,"viability, T/C",[27],67.5%
same,"viability, T/C",[28],72.3%
same,"viability, T/C",[29],57.9%
same,"viability, T/C",[30],44.3%
same,"viability, T/C",[31],82%
same,"viability, T/C",[32],86.8%
same,"viability, T/C",[33],86.9%
same,"viability, T/C",[34],65%
same,"viability, T/C",[35],59.2%
same,"viability, T/C",[36],41.5%
same,"viability, T/C",[37],68.7%
same,"viability, T/C",[38],73.8%
same,"viability, T/C",[39],69.8%
same,"viability, T/C",[40],59%
same,"viability, T/C",[41],56.7%
same,"viability, T/C",[42],27%
